Laboratory results: patent US8975406B2, “Compound useful for the treatment of degenerative and inflammatory diseases” (Galapagos N.V., priority 2011, dated 2015)

Key:
Recombinant human JAK1 = molecular target: T1, Recombinant human JAK1 (Homo sapiens, UniProt P23458); assay: JAK1 Ulight-JAK1 peptide assay; type: biochemical; settings: Ulight-JAK1(tyr1023) peptide, 7 μM ATP
T1 construct: catalytic domain (amino acids 866-1154; catalog number PV4774); purchased Invitrogen PV4774
How it was run: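 TR-FRET assay: recombinant human JAK1 catalytic domain (aa 866-1154, 1 ng) phosphorylates 20 nM Ulight-JAK1(tyr1023) peptide at 7 μM ATP in MOPS pH 6.8 buffer, 1% DMSO, for 60 min at room temperature. Eu-anti-phosphotyrosine detection follows EDTA stop. IC50 comes from 10-point ⅕ dilutions from 20 μM, normalized to 10 μM staurosporine.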

Recombinant human JAK2 = molecular target: T2, Recombinant human JAK2 (Homo sapiens, UniProt O60674); assay: JAK2 Ulight-JAK1 peptide assay; type: biochemical; settings: Ulight-JAK1(tyr1023) peptide, 7.5 μM ATP
T2 construct: catalytic domain (amino acids 808-1132; catalog number PV4210); GST; purchased Invitrogen PV4210
How it was run: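 JAK2 catalytic domain ([…]), 0.0125 mU, with 25 nM Ulight-JAK1(tyr1023) peptide, 7.5 μM ATP, HEPES pH7.0, 60 min at room temperature; stopped with EDTA and Eu-anti-phosphotyrosine, TR-FRET read at 615 nm. Inhibition normalised to vehicle and 10 μM staurosporine; IC50 from 10-point ⅕ dilutions from 20 μM, 1% DMSO.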

[1] = system: JAK-STAT signalling in HeLa cells; assay: JAK-STAT signalling assay (pSTAT1(2)-luciferase reporter, OSM-triggered HeLa cells); type: cell-based; settings: human OSM 33 ng/mL
Description: HeLa cells were maintained in Dulbecco's Modified Eagle's Medium (DMEM) containing 10% heat inactivated fetal calf serum, 100 U/mL penicillin and 100 μg/mL streptomycin. HeLa cells were used at 70% confluence for transfection. 20,000 cells in 87 μL cell culture medium were transiently transfected with 40 ng pSTAT1(2)-luciferase reporter (Panomics), 8 ng of LacZ reporter as internal control reporter and 52 ng of pBSK using 0.32 μL Jet-PEI (Polyplus) as transfection reagent per well in 96-well plate format. After overnight incubation at 37° C., 5% CO2, transfection medium was removed. 81 μL of DMEM+1.5% heat inactivated fetal calf serum was added. 9 μL compound at 10× concentration was added for 60 min and then 10 μL of human OSM (Peprotech) at 33 ng/mL final concentration.
All compounds were tested in duplicate starting from 20 μM followed by a ⅓ serial dilution, 8 doses in total (20 μM-6.6 μM-2.2 μM-740 nM-250 nM-82 nM-27 nM-9 nM) in a final concentration of 0.2% DMSO.
After overnight incubation at 37° C., 5% CO2 cells were lysed by adding 100 μL lysis buffer/well (PBS, 0.9 mM CaCl2, 0.5 mM MgCl2, 10% Trehalose, 0.05% Tergitol NP9, 0.3% BSA).
40 μL of cell lysate was used to read β-galactosidase activity by adding 180 μL β-Gal solution (30 μl ONPG 4 mg/mL+150 μL β-Galactosidase buffer (0.06 M Na2HPO4, 0.04 M NaH2PO4, 1 mM MgCl2)) for 20 min. The reaction was stopped by addition of 50 μL Na2CO3 1 M. Absorbance was read at 405 nm.
Luciferase activity was measured using 40 μL cell lysate plus 40 μL of Steadylite® as described by the manufacturer (Perkin Elmer), on the Envision (Perkin Elmer).
Omitting OSM was used as a positive control (100% inhibition). As negative control 0.5% DMSO (0% inhibition) was used. The positive and negative controls were used to calculate z′ and ‘percent inhibition’ (PIN) values. Percentage inhibition=((fluorescence determined in the presence of vehicle−fluorescence determined for sample with test compound present)divided by(fluorescence determined in the presence of vehicle−fluorescence determined for sample without trigger))*100.
PIN values were plotted for compounds tested in dose-response and EC50 values were derived.

T2 sequence (O60674 808-1132): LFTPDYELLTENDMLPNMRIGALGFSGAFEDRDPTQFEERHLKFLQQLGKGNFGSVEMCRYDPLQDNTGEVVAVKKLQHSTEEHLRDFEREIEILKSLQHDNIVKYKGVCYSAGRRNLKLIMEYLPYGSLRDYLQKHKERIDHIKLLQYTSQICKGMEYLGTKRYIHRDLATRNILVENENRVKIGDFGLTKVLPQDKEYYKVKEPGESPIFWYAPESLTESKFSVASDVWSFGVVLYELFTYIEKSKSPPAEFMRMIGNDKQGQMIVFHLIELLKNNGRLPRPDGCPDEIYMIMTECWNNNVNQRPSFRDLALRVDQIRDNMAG
T1 sequence (P23458 866-1154): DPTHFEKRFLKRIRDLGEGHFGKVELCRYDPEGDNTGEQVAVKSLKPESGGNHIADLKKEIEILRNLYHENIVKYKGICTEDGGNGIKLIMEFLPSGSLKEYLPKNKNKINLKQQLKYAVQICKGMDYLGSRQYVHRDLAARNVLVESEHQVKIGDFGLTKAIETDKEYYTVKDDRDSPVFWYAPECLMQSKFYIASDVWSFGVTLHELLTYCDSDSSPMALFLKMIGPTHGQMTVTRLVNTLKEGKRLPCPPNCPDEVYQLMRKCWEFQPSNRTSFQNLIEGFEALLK

## C[C@H](c1ccc(-c2cccn3nc(NC(=O)C4CC4)cc23)cc1)N1CCN(S(C)(=O)=O)CC1 [Compound 46, (R)-N-(4-(4-(1-(4-(methylsulfonyl)piperazin-1-yl)ethyl)phenyl)pyrazolo[1,5-a]pyridin-2-yl)cyclopropanecarboxamide]
Recombinant human JAK1
  IC50: 0.01 to 100 nM
Recombinant human JAK2
  IC50: 0.01 to 100 nM
[1]
  IC50: 101 to 500 nM

## C[C@@H](c1ccc(-c2cccn3nc(NC(=O)C4CC4)cc23)cc1)N1CCN(S(C)(=O)=O)CC1 [Compound 47, (S)-N-(4-(4-(1-(4-(methylsulfonyl)piperazin-1-yl)ethyl)phenyl)pyrazolo[1,5-a]pyridin-2-yl)cyclopropanecarboxamide]
Recombinant human JAK1
  IC50: 0.01 to 100 nM
Recombinant human JAK2
  IC50: 0.01 to 100 nM
[1]
  IC50: 101 to 500 nM

## O=C(Nc1cc2c(-c3ccc(CN4CCCCC45COC5)cc3)cccn2n1)C1CC1 [Compound 48, N-(4-(4-(2-oxa-5-azaspiro[3.5]nonan-5-ylmethyl)phenyl)pyrazolo[1,5-a]pyridin-2-yl)cyclopropanecarboxamide]
Recombinant human JAK1
  IC50: 0.01 to 100 nM
Recombinant human JAK2
  IC50: 101 to 500 nM
[1]
  IC50: 501 to 1000 nM

## CS(=O)(=O)N1CC[C@@H](Oc2ccc(-c3cccn4nc(NC(=O)C5CC5)cc34)cc2)C1 [Compound 49, (R)-N-(4-(4-(1-(methylsulfonyl)pyrrolidin-3-yloxy)phenyl)pyrazolo[1,5-a]pyridin-2-yl)cyclopropanecarboxamide]
Recombinant human JAK1
  IC50: 0.01 to 100 nM
Recombinant human JAK2
  IC50: > 1000 nM
[1]
  IC50: 101 to 500 nM
